Data as given in patent US20260166159A1, “KRAS G12D DEGRADATION AGENT, AND PREPARATION METHOD AND USE THEREFOR” (LEADINGTAC PHARMACEUTICAL (SHAOXING) CO., LTD., priority 2022, published 2026).
pIC50: −log10 of the molar value.

Tests used:
Format in all cases: cell-based
[1] = target: T1, KRAS-G12D (Homo sapiens, UniProt P01116, G12D); test: KRAS-G12D degradation assay (Western Blot), AsPc-1 cells; conditions: for DC50: 24 h; for Dmax: ASPC1, 24 h
T1 construct: endogenous in cells; host or cells: A-427 (ATCC), AGS, AsPc-1, Panc 04.03
T1 sequence (P01116 1-188 isoform P01116-2 G12D): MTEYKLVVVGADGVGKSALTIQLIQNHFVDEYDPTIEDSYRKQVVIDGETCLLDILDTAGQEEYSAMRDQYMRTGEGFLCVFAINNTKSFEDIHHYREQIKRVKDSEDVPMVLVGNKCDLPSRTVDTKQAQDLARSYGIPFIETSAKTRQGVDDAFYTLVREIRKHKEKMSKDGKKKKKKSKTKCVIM
Protocol: The degradation effects of the compounds on KRAS-G12D were investigated on KRAS G12D mutant human lung cancer cell A-427 (ATCC), KRAS G12D mutant human gastric cancer cell AGS, KRAS G12D mutant human metastatic pancreatic cancer cell AsPc-1, and KRAS G12D mutant human pancreatic adenocarcinoma cell Panc 04.03. The specific procedures were as follows: 0.95 mL of cells were seeded into each well of a 24-well cell culture plate to achieve a cell density of 5×10^5 cells/well; and the cell plate was incubated in an incubator at 37° C. with 5% CO2 overnight. Then 50 μL of the compound solution after dilution was added to each of the wells with the corresponding cells, so that the final concentration of the compound was in a range of 0.03-3000 nM. The final concentration of DMSO was 0.25%. After the compounds were added, the cell plate was incubated in the incubator at 37° C. with 5% CO2 for 24 h. The culture medium in the 24-well cell culture plate was removed, and the plate was washed twice with 1×PBS (KeyGEN). 120 μL of RIPA (strong) lysis buffer (Beyotime) supplemented with 1 mM phenylmethylsulfonyl fluoride, a protease inhibitor mixture (Beyotime), and a protease phosphatase inhibitor mixture (Beyotime) was added to lyse adherent A-427 cells at the bottom of the cell culture plate. After the plate was left to stand on ice for 30 min, the protein lysate in each well was transferred to a 1.5 mL centrifuge tube and centrifuged at 15000 g for 20 min at 4° C. The cell lysate supernatants after centrifugation were cryopreserved in a refrigerator at −80° C. for later use.
After the samples of the cell lysate supernatants that had been prepared were thawed from the refrigerator at −80° C., the total protein concentrations of the cell lysates were determined using a BCA protein quantification kit (Tiangen). The total protein concentrations of the samples were then adjusted to 0.5 μg/μL with PBS and 5×SDS-PAGE protein loading buffer (Beyotime), and the samples were incubated in a water bath at 100° C. for 15 min. The samples were then incubated in an ice bath for 5 min and centrifuged at 14000 g for 1 min at 4° C., and the supernatants were mixed well as loading samples for the Western Blot assay. The samples were loaded into wells of a 10% precast gel (KeyGEN) with a loading volume of 10 μL (total protein: 5 μg), a sufficient Tris-MOPS-SDS running buffer (Adamas) was added, and then electrophoresis was performed at a constant voltage of 120 V for 55 min. After the electrophoresis, the proteins on the gel were transferred to PVDF membranes at a constant current of 250 mA for 55 min. After the membrane transfer, the PVDF membranes were incubated in 1× Quick Block blocking buffer (Beyotime) at room temperature for 30 min. After the blocking, the PVDF membranes were separately incubated at 4° C. overnight with the KRAS antibody (Abcam) diluted in a ratio of 1:1000 and the […] antibody (Abcam) diluted in a ratio of 1:2000 in 5% BSA as the diluent, and then washed with 1×TBST buffer (2.4 g of Tris, 8.8 g of NaCl, 1.5 mL of Tween 20, with pH adjusted to 7.4, with the volume brought to 1 L) 3 times for 10 min/time. The membranes were incubated with a secondary antibody (Abcam) diluted in 5% BSA at room temperature for 2 h, and then washed with 1×TBST buffer 3 times for 10 min/time. Finally, the membranes were incubated with Clarity Western ECL Substrate (BIO-RAD) for 5 min for luminescence and color development, and a ChemiScope 6200 Touch chemiluminescence imaging system (Clinx) was used for color development and protein mapping. Gray value analysis of the protein maps was performed using the chemiluminescence analysis software (Clinx). The gray correction value for each sample was calculated using the formula: gray correction value=(gray value of target protein/gray value of corresponding internal reference)×10^3. Then degradation rates were calculated by comparison with the gray correction value of the control group. […]

[2] = tested on: KRAS G12D mutant human gastric cancer cell AGS; test: 3D cell proliferation inhibition assay, AGS; conditions: 168 h, 7 days, CTG, numeric values
Procedure, shortened: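 Cells seeded at 5×10^2 per well in low-adsorption plates with compounds at 10000–0.026 nM final (0.2% DMSO) and grown 7 days at 37 °C, 5% CO2. Viability by CellTiter-Glo luminescence after 60 min at room temperature; inhibition normalized to DMSO and medium-only controls, IC50 from nonlinear log-concentration fit.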

[3] = tested on: KRAS G12D mutant human metastatic pancreatic cancer cell AsPc-1; test: 3D cell proliferation inhibition assay, AsPc-1; conditions: ASPC1, 168 h, AsPc-1, 7 days, CTG, numeric values
Excerpt: (§1) The inhibitory effects of the compounds on 3D cell proliferation were investigated on KRAS G12D mutant human lung cancer cell A427, KRAS G12D mutant human gastric cancer cell AGS, KRAS G12D mutant human metastatic pancreatic cancer cell AsPc-1, KRAS G12D mutant human pancreatic cancer cell Panc 04.03, KRAS G12D mutant human pancreatic cancer cell HPAC, KRAS G12V mutant human lung squamous cell carcinoma cell SW900, and KRAS WT human gastric cancer cell MKN1. The specific procedures were as follows:
(§2) 10 μL of each compound solution diluted in a gradient was added to corresponding wells of a 96-well low-adsorption microplate (PerkinElmer), so that the final concentrations of the test compounds in the reaction system were in a range of 10000-0.026 nM. The final concentration of DMSO was 0.2%. Then 90 µL of cells were correspondingly seeded into each well to achieve a cell density of 5×10^2 cells/well (the cell density of SW900 was 5×10^1 cells/well, and the cell density of MKN1 was 1×10^3 cells/well). In addition to test wells for the test compounds, both a DMSO control well and a medium control well were set, with the DMSO control well containing DMSO and cells and the medium well containing only a medium. After the sample loading, the 96-well low-adsorption microplate was incubated in an incubator at 37° C. with 5% carbon dioxide for 7 days. After 7 days, the microplate was taken out, and 100 μL of CTG reagent (Promega) was added to each well. The plate was incubated at room temperature for 60 min and read on a microplate reader EnVision by the chemiluminescence program. The inhibition rates of the compounds at each concentration were calculated using the formula for the percentage inhibition of cell proliferation: inhibition rate %=(mean value of DMSO control group−single concentration reading value of compound)/(mean value of DMSO control group−mean value of medium control group)×100. Then non-linear curve fittings for logarithmic concentration-inhibition rate were performed by GraphPad Prism 8, and the IC50 values of the compounds were obtained (Table 5).

[4] = tested on: KRAS G12D mutant human pancreatic cancer cell Panc 04.03; test: 3D cell proliferation inhibition assay, Panc 04.03; conditions: 168 h, Panc 04.03, 7 days, CTG, numeric values
Excerpt: as §1, §2

[5] = tested on: KRAS G12D mutant human pancreatic cancer cell HPAC; test: 3D cell proliferation inhibition assay, HPAC; conditions: 168 h, 7 days, CTG
Excerpt: as §1, §2

Row | SMILES | DC50 [1] [nM] | Dmax [1] [%] | pIC50 [2] | pIC50 [3] | pIC50 [4] | pIC50 [5]
1 | C#Cc1c(F)ccc2cc(O)cc(-c3ncc4c(N5CC6CCC(C5)N6)nc(OC[C@H](C)CN5CCN(CC6CCC7(CC6)CCN(C(=O)c6ccc(C)c(N8CCC(=O)NC8=O)c6)CC7)CC5)nc4c3F)c12 [Example 100, 1-(5-(9-((4-((R)-3-((4-(3,8-diazabicyclo[3.2.1]octan-3-yl)-7-(8-ethynyl-7-fluoro-3-hydroxynaphthalen-1-yl)-8-fluoropyrido[4,3-d]pyrimidin-2-yl)oxy)-2-methylpropyl)piperazin-1-yl)methyl)-3-azaspiro[5.5]undecane-3-carbonyl)-2-methylphenyl)dihydropyrimidine-2,4(1H,3H)-dione] | 2.54 | 100 | 8.44 | 8.69 | 7.62 | 8.61
2 | C#Cc1c(F)ccc2cc(O)cc(-c3ccc4c(N5CC6CCC(C5)N6)nc(OC[C@H](C)CN5CCN(CC6CCC7(CC6)CCN(C(=O)c6ccc(C)c(N8CCC(=O)NC8=O)c6)CC7)CC5)nc4c3F)c12 [Example 251, 1-(5-(9-((4-((R)-3-((4-(3,8-diazabicyclo[3.2.1]octan-3-yl)-7-(8-ethynyl-7-fluoro-3-hydroxynaphthalen-1-yl)-8-fluoroquinazolin-2-yl)oxy)-2-methylpropyl)piperazin-1-yl)methyl)-3-azaspiro[5.5]undecane-3-carbonyl)-2-methylphenyl)dihydropyrimidine-2,4(1H,3H)-dione] | 8.72 | 99.1 |  | 7.84 | 7.65 | 7.40
3 | C#Cc1c(F)ccc2cc(O)cc(-c3ncc4c(N5CC6CCC(C5)N6)nc(OCC5(CN6CCN(CC7CCC8(CCN(C(=O)c9ccc(C)c(N%10CCC(=O)NC%10=O)c9)CC8)OC7)CC6)CC5)nc4c3F)c12 (centres unmarked) [Example 151, 1-(5-(3-((4-((1-(((4-(3,8-diazabicyclo[3.2.1]octan-3-yl)-7-(8-ethynyl-7-fluoro-3-hydroxynaphthalen-1-yl)-8-fluoropyrido[4,3-d]pyrimidin-2-yl)oxy)methyl)cyclopropyl)methyl)piperazin-1-yl)methyl)-1-oxa-9-azaspiro[5.5]undecane-9-carbonyl)-2-methylphenyl)dihydropyrimidine-2,4(1H,3H)-dione] |  |  | 8.17 | 8.41 | 7.64 | 8.16
4 | C#Cc1c(F)ccc2cc(O)cc(-c3ncc4c(N5CC6CCC(C5)N6)nc(OCC5(CN6CCN(CC7CCC8(CCN(C(=O)c9ccc(C)c(N%10CCC(=O)NC%10=O)c9)CC8)CO7)CC6)CC5)nc4c3F)c12 (centres unmarked) [Example 106, 1-(5-(3-((4-((1-(((4-(3,8-diazabicyclo[3.2.1]octan-3-yl)-7-(8-ethynyl-7-fluoro-3-hydroxynaphthalen-1-yl)-8-fluoropyrido[4,3-d]pyrimidin-2-yl)oxy)methyl)cyclopropyl)methyl)piperazin-1-yl)methyl)-2-oxa-9-azaspiro[5.5]undecane-9-carbonyl)-2-methylphenyl)dihydropyrimidine-2,4(1H,3H)-dione] | 10.5 | 99.5 | 7.87 | 7.51 | 7.20 | 6.82
5 | [2H]C([2H])([2H])Oc1ccc(C(=O)N2CCC3(CCC(CN4CCN(C[C@@H](C)COc5nc(N6CC7CCC(C6)N7)c6cnc(-c7cc(O)cc8ccc(F)c(C#C)c78)c(F)c6n5)CC4)CC3)CC2)cc1N1CCC(=O)NC1=O [Example 253, 1-(5-(9-((4-((R)-3-((4-(3,8-diazabicyclo[3.2.1]octan-3-yl)-7-(8-ethynyl-7-fluoro-3-hydroxynaphthalen-1-yl)-8-fluoropyrido[4,3-d]pyrimidin-2-yl)oxy)-2-methylpropyl)piperazin-1-yl)methyl)-3-azaspiro[5.5]undecane-3-carbonyl)-2-(methoxy-d3)phenyl)dihydropyrimidine-2,4(1H,3H)-dione] | 1.39 | 100 | 8.41 | 8.80 | 7.73 | 7.97
6 | [2H]C([2H])([2H])c1ccc(C(=O)N2CCC3(CCC(CN4CCN(CC5(COc6nc(N7CC8CCC(C7)N8)c7cnc(-c8cc(O)cc9ccc(F)c(C#C)c89)c(F)c7n6)CC5)CC4)CC3)CC2)cc1N1CCC(=O)NC1=O [Example 103, 1-(5-(9-((4-((1-(((4-(3,8-diazabicyclo[3.2.1]octan-3-yl)-7-(8-ethynyl-7-fluoro-3-hydroxynaphthalen-1-yl)-8-fluoropyrido[4,3-d]pyrimidin-2-yl)oxy)methyl)cyclopropyl)methyl)piperazin-1-yl)methyl)-3-azaspiro[5.5]undecane-3-carbonyl)-2-(methyl-d3)phenyl)dihydropyrimidine-2,4(1H,3H)-dione] |  |  | 8.36 | 8.85 | 7.77 | 8.80
7 | C#Cc1c(F)ccc2cc(O)cc(-c3ncc4c(N5CC6CCC(C5)N6)nc(OCC5(CN6CCN(CC7CCC8(CC7)CCN(C(=O)c7cc(N9CCC(=O)NC9=O)c(C)cc7F)CC8)CC6)CC5)nc4c3F)c12 [Example 104, 1-(5-(9-((4-((1-(((4-(3,8-diazabicyclo[3.2.1]octan-3-yl)-7-(8-ethynyl-7-fluoro-3-hydroxynaphthalen-1-yl)-8-fluoropyrido[4,3-d]pyrimidin-2-yl)oxy)methyl)cyclopropyl)methyl)piperazin-1-yl)methyl)-3-azaspiro[5.5]undecane-3-carbonyl)-4-fluoro-2-methylphenyl)dihydropyrimidine-2,4(1H,3H)-dione] |  |  | 8.60 | 8.74 | 7.50 | 8.27
